ChEMBL document CHEMBL1139196, “Synthesis of fluorescent-labeled aeruginosin derivatives for high-throughput fluorescence correlation spectroscopy assays” (Bioorg Med Chem Lett, 2007)

biological target: Trypsin (Homo sapiens, UniProt P07477+P07478+P35030); test: Inhibition of trypsin by FCS method; assay type: protein assay

IC50 [nM] | Compound
8800 | N=C(N)NCCC[C@@H](CO)NC(=O)[C@@H]1C[C@@H]2CC[C@@H](O)C[C@@H]2N1C(=O)[C@@H](Cc1ccc(O)cc1)NC(=O)[C@H](O)Cc1ccc(O)cc1
1000 | N=C(N)NCCC[C@H](NC(=O)[C@@H]1C[C@@H]2CC[C@@H](O)C[C@@H]2N1C(=O)[C@@H](Cc1ccc(O)cc1)NC(=O)[C@H](O)Cc1ccc(O)cc1)C(=O)O
150 | N=C(N)NCCCCNC(=O)[C@@H]1C[C@@H]2CC[C@@H](O)C[C@@H]2N1C(=O)[C@@H](Cc1ccc(O)cc1)NC(=O)[C@H](O)Cc1ccc(O)cc1
12000 | N=C(N)NCCC[C@H](NC(=O)[C@@H]1C[C@@H]2CC[C@@H](O)C[C@@H]2N1C(=O)[C@H](Cc1ccccc1)NC(=O)[C@H](O)Cc1ccc(O)cc1)C(=O)O
650 | CC(C)C[C@@H](NC(=O)[C@H](O)Cc1ccc(O)cc1)C(=O)N1[C@H](C(=O)N[C@@H](CCCNC(=N)N)C(=O)O)C[C@@H]2CC[C@@H](O)C[C@@H]21
